Experimental data from PubChem BioAssay AID1259411 (Chemical Carcinogenesis Research Information System (CCRIS), 2018).
Active and inactive are the calls of the source. No rule for the calls is given here.

System: rodent carcinogenicity bioassays, tumor incidence
Experiment: CCRIS carcinogenicity studies
Outline: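 Archive of carcinogenicity, mutagenicity, tumor promotion and tumor inhibition results drawn from journals, NCI reports and other sources, expert-reviewed; covers 1985-2011 and is no longer updated.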

With `Nc1ccc(N)cc1` the carcinogen call (Species: MOUSE, Strain/Sex: B6C3F1/FEMALE, Route: ORAL, Dose: 0, 625, 1250 PPM IN DIET, Dose: 0, 625, 1250 PPM IN DIET) was “inactive; negative”, the carcinogen call (Species: MOUSE, Strain/Sex: B6C3F1/MALE, Route: ORAL, Dose: 0, 625, 1250 PPM IN DIET, Dose: 0, 625, 1250 PPM IN DIET) was “inactive; negative” and the carcinogen call (Species: RAT, Strain/Sex: F344/FEMALE, Route: ORAL, Dose: 0, 625, 1250 PPM IN DIET, Dose: 0, 625, 1250 PPM IN DIET) was “inactive; negative”. For the same compound, the carcinogen call (Species: RAT, Strain/Sex: F344/MALE, Route: ORAL, Dose: 0, 625, 1250 PPM IN DIET, Dose: 0, 625, 1250 PPM IN DIET) was “inactive; negative”.

For `CNC(=O)Oc1cccc2c1OC(C)(C)O2`, the carcinogen call (Species: Mouse, Strain/Sex: CD-1/Female, Route: Oral, Dose: 0, 50, 250, 1250 ppm in diet for 94 wks, Dose: 0, 50, 250, 1250 ppm in diet for 94 wks) was “inactive; negative; purity 92.7%” and the carcinogen call (Species: Mouse, Strain/Sex: CD-1/Male, Route: Oral, Dose: 0, 50, 250, 1250 ppm in diet for 89 wks, Dose: 0, 50, 250, 1250 ppm in diet for 89 wks) was “inactive; negative; purity 92.7%”.

In the case of `CO[C@@H](Cc1ccc(OCCCOc2ccc(Oc3ccccc3)cc2)cc1)C(=O)O`, the carcinogen call (Species: Rat, Strain/Sex: F344/N / Female (60/Group), Route: Oral (gavage), Dose: 0, 0.1, 0.3, 1.0 mg/kg bw daily for 104 wk, study duration 104 wk, Dose: 0, 0.1, 0.3, 1.0 mg/kg bw daily for 104 wk, study duration 104 wk, Tumor Site: Type of Lesion: Bladder: carcinoma (0, 0, 2, 8), papilloma (0, 0, 0, 6)) is reported as “active; positive. study primarily directed to urine characteristics” and the carcinogen call (Species: Rat, Strain/Sex: F344/N / Male (60/Group), Route: Oral (gavage), Dose: 0, 0.3, 1.0, 3.0 mg/kg bw daily for 104 wk, study duration 104 wk, Dose: 0, 0.3, 1.0, 3.0 mg/kg bw daily for 104 wk, study duration 104 wk) is reported as “inactive; negative”.

In the case of `O[C@@H]1[C@@H]2O[C@@H]2c2c(ccc3c2ccc2ccccc23)[C@H]1O`, the carcinogen call (Species: MOUSE, Strain/Sex: ICR/FEMALE, Route: INTRAPERITONEAL, Dose: 0, 8 NMOL IN 5 µL DMSO ON D 1, 16 NMOL IN 10 µL ON D 8 AND 32 NMOL IN 20 µL ON D 15 OF LIFE (STUDY DURATION: 35 WK)) is reported as “inactive; negative”, the carcinogen call (Species: MOUSE, Strain/Sex: ICR/FEMALE, Route: INTRAPERITONEAL, Dose: 0, 500 NMOL (TOTAL DOSE) ADMINISTERED IN DOSES OF 1/7, 2/7, AND 4/7 ON DAYS 1, 7, AND 15 OF LIFE, RESPECTIVELY (STUDY DU, Tumor Site: Type of Lesion: LUNG: TUMOR) is reported as “active; positive” and the carcinogen call (Species: MOUSE, Strain/Sex: ICR/MALE, Route: INTRAPERITONEAL, Dose: 0, 8 NMOL IN 5 µL DMSO ON D 1, 16 NMOL IN 10 µL ON D 8 AND 32 NMOL IN 20 µL ON D 15 OF LIFE (STUDY DURATION: 35 WK)) is reported as “inactive; negative”. For the same compound, the carcinogen call (Species: MOUSE, Strain/Sex: ICR/MALE, Route: INTRAPERITONEAL, Dose: 0, 500 NMOL (TOTAL DOSE) ADMINISTERED IN DOSES OF 1/7, 2/7, AND 4/7 ON DAYS 1, 7 AND 15 OF LIFE , RESPECTIVELY (STUDY DU, Tumor Site: Type of Lesion: LUNG: TUMOR) was “active; positive”.

For `CC(=O)Nc1cc(NS(=O)(=O)C(F)(F)F)c(C)cc1C`, the carcinogen call (Species: Mouse, Strain/Sex: Strain not specified by Department of Pesticide Regulation/Female (60/Group), Route: Oral, Dose: 0, 600, 1800, 6000 ppm of 93% mefluidide in diet for 18-19 mo, study duration 19 mo, Dose: 0, 600, 1800, 6000 ppm of 93% mefluidide in diet for 18-19 mo, study duration 19 mo) was “inactive; negative” and the carcinogen call (Species: Mouse, Strain/Sex: Strain not specified by Department of Pesticide Regulation/Male (60/Group), Route: Oral, Dose: 0, 600, 1800, 6000 ppm of 93% mefluidide in diet for 18-19 mo, study duration 19 mo, Dose: 0, 600, 1800, 6000 ppm of 93% mefluidide in diet for 18-19 mo, study duration 19 mo) was “inactive; negative”.

`CC(=O)O[C@]1(C(C)=O)CC[C@H]2[C@@H]3C=C(Cl)C4=CC(=O)[C@@H]5C[C@@H]5[C@]4(C)[C@H]3CC[C@@]21C` was tested, and the carcinogen call (Species: MOUSE, Strain/Sex: C57BL/FEMALE, Route: ORAL, Dose: 0, 800 PPM IN DIET FOR 97 WK (STUDY DURATION: 97 WK), Tumor Site: Type of Lesion: LIVER: HEPATOCELLULAR ADENOMA, HEPATOCELLULAR CARCINOMA) was “active; positive”, the carcinogen call (Species: MOUSE, Strain/Sex: C57BL/MALE, Route: ORAL, Dose: 0, 800 PPM IN DIET FOR 104 WK (STUDY DURATION: 104 WK), Tumor Site: Type of Lesion: LIVER: HEPATOCELLULAR ADENOMA, HEPATOCELLULAR CARCINOMA) was “active; positive” and the carcinogen call (Species: RAT, Strain/Sex: WISTAR/MALE, Route: GAVAGE, Dose: 0, 50 MG/KG IN TAP WATER 1/D FOR 21 D (STUDY DURATION: 79 WK)) was “inactive; negative”.

In the case of `CCCC(OC(C)=O)N(CCCC(=O)OC)N=O` (stereo not drawn), the carcinogen call (Species: RAT, Strain/Sex: F344/MALE,FEMALE, Route: SUBCUTANEOUS, Dose: 38 UMOL/KG IN OLIVE OIL 1/WK FOR 10 WK, Tumor Site: Type of Lesion: INJECTION SITE: MALIGNANT FIBROUS HISTIOCYTOMA) is reported as “active; positive”.

For `O=C1c2ccccc2-c2ccc3c4c(ccc1c24)-c1ccccc1C3=O`, the carcinogen call (Species: MOUSE, Strain/Sex: B6C3F1/FEMALE, Route: ORAL, Dose: 0, 12500, 25000 PPM IN DIET, Dose: 0, 12500, 25000 PPM IN DIET) was “inactive; negative”, the carcinogen call (Species: MOUSE, Strain/Sex: B6C3F1/MALE, Route: ORAL, Dose: 0, 25000, 50000 PPM IN DIET, Dose: 0, 25000, 50000 PPM IN DIET, Tumor Site: Type of Lesion: LYMPHATIC SYSTEM: LYMPHOMA, LIVER: HEPATOCELLULAR CARCINOMA) was “active; positive” and the carcinogen call (Species: RAT, Strain/Sex: F344/FEMALE, Route: ORAL, Dose: 0, 3500, 7000 PPM IN DIET, Dose: 0, 3500, 7000 PPM IN DIET) was “inactive; negative”. For the same compound, the carcinogen call (Species: RAT, Strain/Sex: F344/MALE, Route: ORAL, Dose: 0, 3500, 7000 PPM IN DIET, Dose: 0, 3500, 7000 PPM IN DIET) was “inactive; negative”.

With `CCOC(=O)CC(SP(=O)(OC)OC)C(=O)OCC` (stereo not drawn) the carcinogen call (Species: MOUSE, Strain/Sex: B6C3F1/FEMALE, Route: ORAL, Dose: 0, 500, 1000 PPM IN DIET, Dose: 0, 500, 1000 PPM IN DIET) was “inactive; negative”, the carcinogen call (Species: MOUSE, Strain/Sex: B6C3F1/MALE, Route: ORAL, Dose: 0, 500, 1000 PPM IN DIET, Dose: 0, 500, 1000 PPM IN DIET) was “inactive; negative” and the carcinogen call (Species: RAT, Strain/Sex: F344/FEMALE, Route: ORAL, Dose: 0, 500, 1000 PPM IN DIET, Dose: 0, 500, 1000 PPM IN DIET) was “inactive; negative”. The carcinogen call (Species: RAT, Strain/Sex: F344/MALE, Route: ORAL, Dose: 0, 500, 1000 PPM IN DIET, Dose: 0, 500, 1000 PPM IN DIET) was “inactive; negative”.

`NCCN` was tested, and the carcinogen call (Species: MOUSE, Strain/Sex: C3H/MALE, Route: DERMAL, Dose: 0, 25 µL OF A 1% DEIONIZED WATER SOLUTION 3/WK FOR LIFESPAN (STUDY DURATION: LIFESPAN)) was “inactive; negative”, the carcinogen call (Species: RAT, Strain/Sex: F344/FEMALE, Route: ORAL, Dose: 0, 20, 100, 350 MG/KG/D IN DIET FOR 104 WK (STUDY DURATION: 104 WK), Dose: 0, 20, 100, 350 MG/KG/D IN DIET FOR 104 WK (STUDY DURATION: 104 WK)) was “inactive; negative” and the carcinogen call (Species: RAT, Strain/Sex: F344/MALE, Route: ORAL, Dose: 0, 20, 100, 350 MG/KG/D IN DIET FOR 104 WK (STUDY DURATION: 104 WK), Dose: 0, 20, 100, 350 MG/KG/D IN DIET FOR 104 WK (STUDY DURATION: 104 WK)) was “inactive; negative”.

With `Cl[C@@H]1C2(Cl)C3C4[C@@H]5O[C@@H]5[C@H]5C3[C@@](Cl)(C2(Cl)Cl)[C@]1(Cl)[C@@H]45` (stereo partly drawn) the carcinogen call (Species: MOUSE, Strain/Sex: B6C3F1/FEMALE, Route: ORAL, Dose: 0, 0.32, 0.64 PPM IN DIET, Dose: 0, 0.32, 0.64 PPM IN DIET) was “inactive; negative”, the carcinogen call (Species: MOUSE, Strain/Sex: B6C3F1/MALE, Route: ORAL, Dose: 0, 0.32, 0.64 PPM IN DIET, Dose: 0, 0.32, 0.64 PPM IN DIET) was “inactive; negative” and the carcinogen call (Species: RAT, Strain/Sex: OSBORNE-MENDEL/FEMALE, Route: ORAL, Dose: 0, 3.4, 7.5 PPM IN DIET, TWA, Dose: 0, 3.4, 7.5 PPM IN DIET, TWA) was “inactive; negative”. The carcinogen call (Species: RAT, Strain/Sex: OSBORNE-MENDEL/MALE, Route: ORAL, Dose: 0, 5, 10 PPM IN DIET, Dose: 0, 5, 10 PPM IN DIET) was “inactive; negative”.
